For test [1], the target named is T1, Papain (Carica papaya, UniProt P00784).
T1 sequence (P00784 whole entry): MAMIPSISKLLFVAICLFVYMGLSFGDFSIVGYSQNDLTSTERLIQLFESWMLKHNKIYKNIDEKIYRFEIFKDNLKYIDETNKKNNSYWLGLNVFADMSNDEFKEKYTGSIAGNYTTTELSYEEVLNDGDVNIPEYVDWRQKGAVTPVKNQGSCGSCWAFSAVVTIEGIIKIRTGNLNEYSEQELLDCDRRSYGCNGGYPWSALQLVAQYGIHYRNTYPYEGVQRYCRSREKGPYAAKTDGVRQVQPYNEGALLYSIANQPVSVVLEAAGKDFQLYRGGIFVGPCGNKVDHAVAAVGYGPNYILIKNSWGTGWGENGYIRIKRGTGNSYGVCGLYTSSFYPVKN
The test is described as follows: Inhibition of papain-catalyzed hydrolysis of BzArg p-nitroanilide by compound at pH 5.

Test [2] deals with T1, Papain. Briefly: Inhibition of papain-catalyzed hydrolysis of BzArg p-nitroanilide by compound at pH 5.5.
The target in test [3] is T1, Papain. Briefly: Inhibition of papain-catalyzed hydrolysis of BzArg p-nitroanilide by compound at pH 7.
The next test addresses T2, Papain (Carica papaya) (UniProt P00784).
T2 sequence (whole entry): T1 sequence (P00784 whole entry)

Description for Papain (Carica papaya): Initial rate of reaction between papain and BzArg p-nitro-anilide in the presence of 400 uM at pH 7

For orientation: Ki means a measure of affinity in units of concentration, obtained from inhibition or displacement. As to `CC(=O)N[C@@H](C)C(=O)N/N=C/CNC(=O)c1ccccc1`, the figures for the inhibitory constant (Ki) at Papain [1], on Papain [2] and on Papain [3] were 38 µM, 25 µM and 30 µM, respectively. Further, the Kix on Papain (Carica papaya) was found to be 1 mM.

The record behind these values is ChEMBL document CHEMBL1124487, “Acid-sensitive latent inhibitors for proteolytic enzymes: synthesis and characterization” (J Med Chem, 1989).
